# Tested on: Plasmodium falciparum
# Assay: GSK_TCMDC: Inhibition of Plasmodium falciparum 3D7 in whole erythrocytes, using parasite LDH activity as an index of growth.
# Format: functional, organism-based
# Details: Plasmodium falciparum, 3D7
row,Structure (SMILES),XC50
1,Nc1nc2c(cnn2CCCCCCCP(=O)(O)O)c(=O)[nH]1,469 nM
2,CCN(CC)CCN(Cc1ccc(-c2ccc(C(F)(F)F)s2)cc1)C(=O)Cn1c(CCc2cccc(F)c2F)nc(=O)c2ccccc21,994 nM
3,CCN(CC)CCN(Cc1ccc(-c2ccc(C(F)(F)F)cc2)cc1)C(=O)Cn1c(CCc2ccc(F)c(C#N)c2)nc(=O)c2ccccc21,769 nM
4,CC(C)CNCc1cccc(-c2ccc(CN(C(=O)NC3CCCCC3)C3CCN(Cc4ccccc4)CC3)cc2)c1,763 nM
5,C=CCc1cc(Br)ccc1OCCCOc1c(C)nc(N)nc1N,3.2 nM
6,N=C(/N=C(/NCCCCCCN/C(=N/C(=N)NCc1ccc(Cl)c(Cl)c1)N1CCCCC1)N1CCCCC1)NCc1ccc(Cl)c(Cl)c1,567 nM
7,Nc1ncc(OC2CCCCC2)c(N)n1,1070 nM
8,COCCNCc1cccc(-c2ccccc2CN(C(=O)Nc2ccccc2)C2CCN(Cc3ccccc3)CC2)c1,914 nM
9,COc1cccc(C2C(C(=O)Nc3ccccc3)=C(C)N=c3sc(=Cc4ccc(O)cc4)c(=O)n32)c1 (stereo unspecified),579 nM
10,Cc1ccc(N(CCC(=N)N)Cc2ccccc2)cc1,657 nM
11,CC(C)(C)c1ccc(CN2CCC(CNC(=O)c3cc(-c4cccc(F)c4)cs3)C2)cc1 (stereo unspecified),898 nM
12,Cc1ccc(C(=O)Nc2ccc(OC3CCN(CCC(C)C)C3)c(Cl)c2)cc1 (stereo unspecified),991 nM
13,Nc1ccc2[nH]cc(C3CCN(CC4CCN(C(=O)/C=C/c5ccc(Cl)c(Cl)c5)CC4)CC3)c2n1,701 nM
14,COc1cc(C2=NN(S(=O)(=O)c3c(C)cc(C)cc3C)CCCC2)ccc1Cl,775 nM
15,Cn1nccc1C(=O)NCCNCc1cccc(-c2cccc(-c3nc4cc(F)ccc4[nH]3)c2)c1,261 nM
16,COc1ccc2ncc(F)c(NC(=O)C3CCC(NCc4cc5c(F)cccc5[nH]4)CC3)c2n1 (stereo unspecified),1090 nM
17,COc1cc2[nH]c(-c3ccc(O)cc3)c(C)c(=O)c2c(OC)c1OC,717 nM
18,CC(=O)Nc1ncc(C(=O)Nc2cccc(-c3cccc(-c4nc5cc(C(F)(F)F)ccc5[nH]4)c3)c2)s1,185 nM
19,O=C(CCc1c[nH]cn1)Nc1cccc(-c2ccc(-c3nc4cc(F)ccc4[nH]3)cc2)c1,244 nM
20,CN1CCC(Oc2ccc(CN3CC[C@H](NC(=O)c4ccc(Cl)c(Cl)c4)C3)cc2Cl)C1 (stereo partly specified),882 nM
21,CC1(C)N=C(N)N=C(Nc2ccc(F)c(F)c2)N1,52.5 nM
22,Cc1ccc(F)c(OCC2CCN(c3ccc(C(=O)NC4CC4)cn3)CC2)c1,733 nM
23,C=CCOC(=O)N1CCC(CNCc2ccc(-c3cccc(-c4nc5ccccc5[nH]4)c3)cc2)C1 (stereo unspecified),255 nM
24,C[C@H]1CN(Cc2cccc(-c3cc(CNC(=O)c4cccc(CN5CCN(CCOc6ccccc6)CC5)c4)ccc3F)c2)CCN1,1110 nM

row,Structure (SMILES),XC50
1,CC(=O)Nc1ccc(CN(Cc2ccc(F)cc2)Cc2cccc(Oc3ccccc3)c2)cc1,943 nM
2,O=C(Nc1ccccc1C(F)(F)F)Nc1nn(Cc2c(F)cccc2Cl)cc1Br,337 nM
3,COc1ccc(C(=O)NC(Nc2ccc([N+](=O)[O-])cc2)C(Cl)(Cl)Cl)cc1 (stereo unspecified),1080 nM
4,C[C@H](Nc1nc(C(Oc2ccccc2)c2ccccc2)nc2[nH]ncc12)c1ccccc1 (stereo partly specified),484 nM
5,CC(C)C[C@@H](CNC[C@H](CC(C)C)NC(=O)OC(C)(C)C)NC(=O)OC(C)(C)C,1250 nM
6,O=C(Cc1c[nH]cn1)Nc1cccc(-c2ccc(-c3nc4cc(F)ccc4[nH]3)s2)c1,660 nM
7,CCOc1cc(Cc2cnc(N)nc2N)cc(OCC)c1OCCCCC(=O)OC,44.8 nM
8,COc1ccc2nc3cc(Cl)ccc3c(NCCN3CCN(C)CC3)c2c1,124 nM
9,CN1CCN(CCCN(Cc2ccc(-c3cccc(CNCc4ccc5c(c4)OCO5)c3)cc2)C(=O)CCC2CCCC2)CC1,1010 nM
10,COc1ccc2ncc(F)c(CCN3C[C@H](CNCc4cc(F)c5c(c4)NC(=O)CO5)[C@H](O)C3)c2n1,667 nM
11,COc1cc2c(cc1CCNCCCCNCCc1cc3c(cc1OC)CCCC3)CCCC2,996 nM
12,O=C(Nc1ccc2[nH]c(-c3ccc4nc(NC(=O)C5CCCCC5)sc4c3)nc2c1)C1CCCCC1,612 nM
13,COc1ccc(O)c(Cc2cnc3nc(N)nc(N)c3c2C)c1,36.8 nM
14,CC(=O)Nc1ccc2[nH]cc(C3CCN(CC4CCC(NC(=O)/C=C/c5ccc(Cl)c(Cl)c5)CC4)CC3)c2n1 (stereo unspecified),263 nM
15,COc1ccc(CNC(=O)Nc2cc3cc(-c4ccc(CN(C)C)cc4)ccc3n3c(C)nnc23)cc1,852 nM
16,CCCN(CCC)c1nn2c(=O)c(C(=O)N3CCN(Cc4ccccc4)CC3)cnc2s1,999 nM
17,CCCCCCCc1[nH]c2ccccc2c(=O)c1C,509 nM
18,CCOC(=O)CN(c1ccc(Br)cc1OCCOc1cc(Br)ccc1N(CC(=O)OCC)C(C)C(=O)OCC)C(C)C(=O)OCC (stereo unspecified),806 nM
19,Cc1ccc(-c2cc(C(=O)Nc3ccc(S(=O)(=O)N4CCOCC4)cc3)[nH]n2)c(O)c1C,920 nM
20,OCCOCCNCc1cccc(C#Cc2cc3ncnc(Nc4ccc(OCc5cccc(F)c5)c(Cl)c4)c3s2)n1,781 nM
21,COc1ccc2c(O)c(Br)c(C)nc2c1,192 nM
22,N=c1c(C(=O)NCc2ccccc2)cc2c(=O)n3ccccc3nc2n1CCc1ccccc1,535 nM
23,Cc1cc(=NN=Cc2ccccc2F)c2cccc(C)c2[nH]1,764 nM
24,CCCc1ccc(S(=O)(=O)Nc2ccc3c(c2)CCC3)cc1,879 nM

row,Structure (SMILES),XC50
1,CO/C(=C\C=C\c1cc2cc(Cl)c(Cl)cc2[nH]1)C(=O)NCCCCN1CCN(c2ccccc2OC)CC1,514 nM
2,CCC(C)Oc1ccc2nc(N)nc(N)c2c1Cl (stereo unspecified),177 nM
3,O=C(NCc1cccc(CN2CCOCC2)c1)c1cc(Br)cc(N2CCN(c3ccncc3)CC2)c1,858 nM
4,COc1c(C2CCN(CCCCNC(=O)c3oc(-c4ccc(Cl)cc4)cc3CO)CC2)ccc2c1CCCC2,367 nM
5,N#Cc1ccc(/C=C/C(=O)NCCCCCN2CCN(C(=O)Nc3ccc(Cl)c(C(F)(F)F)c3)CC2)cc1,780 nM
6,Cc1cccc2nc(C(=O)Nc3nc(CN4CCC(C)CC4)cs3)cn12,758 nM
7,Cc1cccc2nc(-c3ccc(-c4ccc(NC(=O)NCc5ccccc5)cc4)s3)[nH]c12,768 nM
8,CC(C)=C(C(=O)OCc1ccccc1)N1C(=O)[C@@H](NC(c2ccccc2)(c2ccccc2)c2ccccc2)[C@H]1[S+]([O-])CC(=O)OC(C)(C)C (stereo partly specified),1020 nM
9,COc1cccc2sc(Nc3nc(-c4ccccn4)cs3)nc12,805 nM
10,CN(C)C(=O)n1cnc(S(=O)(=O)N(C)c2ccc(Cl)cc2)n1,767 nM
11,CCc1ccc(C(=O)NC(=O)c2ccccc2O)cc1,610 nM
12,COc1cc(NC(=O)/C=C/c2ccccc2OC(F)(F)F)cc(OCCN2CCN(CCN3CCOCC3)CC2)c1,157 nM
13,O=C(NC1CC1)c1ccc(N2CCN(Cc3ccc(Cl)cc3)CC2)nc1,1340 nM
14,O=C(Nc1ccc2c(c1)OCO2)c1cc(-c2cccnc2)nc2ccc(Cl)cc12,524 nM
15,CCOc1ccc(-c2nonc2NC(=O)c2ccco2)cc1OCC,750 nM
16,Cc1c(C)c2c(c(C)c1O)CC[C@@](C)(C(=O)N1CCC(CN3CCC(c4c[nH]c5ccccc45)CC3)CC1)O2,657 nM
17,FC(F)(F)c1cccc(CCNc2nccc(NCc3ccccc3Cl)n2)c1,1170 nM
18,CN1CCCC1CCNCc1ccc(-c2ccc(CNCCc3ccccc3)cn2)cc1 (stereo unspecified),1110 nM
19,CN(C(=O)/C=C/c1c(Cl)cccc1Cl)C1CCN(CCCCCNC(=O)/C=C/c2ccc(Cl)c(Cl)c2)CC1,360 nM
20,O=C(NCCCCCN1CCC(c2c[nH]c3ccccc23)CC1)c1ccc(-c2ccccc2)nc1,1020 nM
21,COc1cccc(C(=O)NCc2cccs2)c1Oc1ccccc1,63.5 nM
22,Cc1cc(N2CC=CCC2)nc(NC(=N)Nc2ccc(Cl)cc2)n1,782 nM
23,N=C(N)CCN(Cc1ccccc1)c1ccc(Cl)cc1,257 nM
24,COc1cc(Cc2cnc(NCCN3CCNCC3)nc2N)ccc1OCc1ccc(C(F)(F)F)cc1,922 nM

row,Structure (SMILES),XC50
1,CCCCCN1CCC(CNS(=O)(=O)c2ccc(C(=O)Nc3cccc(C(F)(F)F)c3)cc2)CC1,747 nM
2,O=C(Nc1cccc(CN2CCCN(CC3CCCCC3)CC2)c1)c1ccc(Cl)c(Cl)c1,962 nM
3,CC(C)N1CCN(C(=O)c2ccc(CNCCCN3CCN(c4ccccc4C(F)(F)F)CC3)s2)CC1,837 nM
4,Cc1cccc(-c2nc3cc(NC(=O)c4ccc([N+](=O)[O-])o4)ccc3o2)c1,876 nM
5,Oc1cc(Nc2ccnc3ccc(I)cc23)c(F)cc1Cl,1230 nM
6,Nc1cccc(CNCc2ccc(-c3cccc(-c4nc5cc(C(F)(F)F)ccc5[nH]4)c3)cc2)c1,172 nM
7,CCOC(=O)c1cc(=O)c2ccc(OCC#N)cc2o1,1030 nM
8,CN(C)S(=O)(=O)c1ccc(N2C(=O)C3C(C2=O)C2(c4ccccc4)C(=O)C3(c3ccccc3)C(c3ccccc3)=C2c2ccccc2)cc1 (stereo unspecified),951 nM
9,Oc1c(Cl)cc(Nc2nccc(Nc3ccc(Oc4ccccc4)cc3)n2)cc1Cl,786 nM
10,Cc1cc(=NN=Cc2ccccc2)c2cc(F)ccc2[nH]1,579 nM
11,CN1CCN(c2ccnc3ccc(NC(=O)Cc4cccc(Cl)c4Cl)cc23)CC1,791 nM
12,Cc1ccc(CON2C(N)=NC(N)=NC2(C)C)c(Cl)c1.Cc1ccc(CON2C(N)=NC(N)=NC2(C)C)cc1Cl,3.2 nM
13,CCCCCN1CCCC(CNS(=O)(=O)c2cccc(C(=O)Nc3ccc(C(F)(F)F)cc3)c2)C1 (stereo unspecified),829 nM
14,CCOC(=O)C(C)(C)Oc1ccc(CN(Cc2ccc(CC(C)C)cc2)C(=O)Nc2ccc(F)cc2F)c(OC)c1,238 nM
15,Cc1nn(-c2ccc(Cl)cc2)c2[nH]c(CN3CCN(c4cccc(Cl)c4)CC3)cc(=O)c12,240 nM
16,Cc1cccc(C(=O)Nc2ccnc(N(C)C3CCN(Cc4cccc(O)c4)CC3)c2)c1,944 nM
17,O=C(Nc1ccc(C2=NC3CCCCC3N2)cc1)Nc1ccc(C2=NC3CCCCC3N2)cc1 (stereo unspecified),179 nM
18,CCCC(=O)c1cnc2c(Oc3cc(Cl)ncn3)cccc2c1Nc1ccccc1C,336 nM
19,CCNc1cc(C(=O)N[C@@H](Cc2ccc(Cl)cc2)[C@H](O)CNC2CCCCC2)cc(N2CCCCS2(=O)=O)c1,150 nM
20,Cc1nn(-c2ccccc2)c2nc(-c3ccccc3)cc(C(=O)N3CCOCC3)c12,872 nM
21,CCN(CC)CCN(Cc1ccc(-c2ccc(C(F)(F)F)cc2)cc1)C(=O)Cn1c(CCc2cccc(F)c2F)cc(=O)cc1-c1ccccc1,778 nM
22,O=C(Nc1ccc(S(=O)(=O)N2CCOCC2)cc1)c1cc(-c2cc(Cl)ccc2O)n[nH]1,770 nM
23,N#Cc1ccc2c(c1)CCN(CCC1CCC(NC(=O)c3cc4ccccc4[nH]3)CC1)CC2 (stereo unspecified),1010 nM
24,COC(=O)c1cccc(NC(=O)NC2CCN(c3ccnc(Nc4cc(OC)c(OC)c(OC)c4)n3)C2)c1 (stereo unspecified),512 nM

# From ChEMBL document CHEMBL1157539, “Thousands of chemical starting points for antimalarial lead identification” (Nature, 2010)
